# Assay results published in US4864023A, “Pyrido(3,2,1-IJ)-1,3,4-benzoxadiazine derivatives” (priority 1988, dated 1989).
# Read-outs that look alike come from different tables or passages of the source.
# What was measured:
# Assay in all cases: in vitro antibacterial activity, standard agar dilution method
# Type in all cases: cell-based
# [1] = tested on: Bacillus subtilis PCI 219; conditions: PCI219, aerobic, read-out: minimum inhibitory concentration (MIC)
# [2] = tested on: Staphylococcus aureus FDA 209P JC-1; conditions: FDA209P, read-out: minimum inhibitory concentration (MIC)
# [3] = tested on: Staphylococcus aureus NR 2855
# [4] = tested on: Staphylococcus aureus Smith; conditions: read-out: minimum inhibitory concentration (MIC)
# [5] = tested on: Staphylococcus epidermidis IFO 12993; conditions: IFO12993, aerobic, read-out: minimum inhibitory concentration (MIC)
# [6] = tested on: Staphylococcus epidermidis NR 2942; conditions: NR2942, aerobic, read-out: minimum inhibitory concentration (MIC)
# [7] = tested on: Enterococcus faecalis NR 2943; conditions: NR2943, aerobic, read-out: minimum inhibitory concentration (MIC)
# [8] = tested on: Alcaligenes faecalis IFO 13111; conditions: IFO13111, aerobic, read-out: minimum inhibitory concentration (MIC)
# [9] = tested on: Citrobacter freundii IFO 12681; conditions: IFO12681, aerobic, read-out: minimum inhibitory concentration (MIC)
# [10] = tested on: Enterobacter aerogenes NR 2945; conditions: Klebsiella aerogenes, NR2945, aerobic, read-out: minimum inhibitory concentration (MIC)
# [11] = tested on: Enterobacter cloacae NR 2946; conditions: NR2946, aerobic, read-out: minimum inhibitory concentration (MIC)
# [12] = tested on: Escherichia coli NIHJ JC-2; conditions: NIHJJC2, aerobic, read-out: minimum inhibitory concentration (MIC)
# Escherichia coli NR 2630 = conditions: NR2630; Escherichia coli NR 2630; aerobic; agar dilution; read-out: minimum inhibitory concentration (MIC)
# [13] = tested on: Klebsiella pneumoniae FDA PCI 602; conditions: FDAPCI602, aerobic, read-out: minimum inhibitory concentration (MIC)
# [14] = tested on: Bordetella bronchiseptica ATCC 4617; conditions: ATCC4617, aerobic, read-out: minimum inhibitory concentration (MIC)
# [15] = tested on: Proteus rettgeri ATCC 14505; conditions: Providencia rettgeri, ATCC14505, aerobic, read-out: minimum inhibitory concentration (MIC)
# [16] = tested on: Proteus vulgaris OX19 ATCC 6898; conditions: ATCC6898, aerobic, read-out: minimum inhibitory concentration (MIC)
# [17] = tested on: Pseudomonas aeruginosa A3; conditions: aerobic, read-out: minimum inhibitory concentration (MIC)
# [18] = tested on: Pseudomonas aeruginosa NR 2950; conditions: NR2950, aerobic, read-out: minimum inhibitory concentration (MIC)
# [19] = tested on: Pseudomonas stutzeri IFO 12695; conditions: Stutzerimonas stutzeri, IFO12695, aerobic, read-out: minimum inhibitory concentration (MIC)
# [20] = tested on: Serratia marcescens IFO 12648; conditions: IFO12648, aerobic, read-out: minimum inhibitory concentration (MIC)
# [21] = tested on: Salmonella typhimurium IFO 12529; conditions: Salmonella enterica, aerobic, read-out: minimum inhibitory concentration (MIC)
# [22] = Staphylococcus aureus FDA 209P JC-1, aerobic, agar dilution
# [23] = NR2855, Staphylococcus aureus NR 2855, aerobic, agar dilution, read-out: minimum inhibitory concentration (MIC)
# [24] = Staphylococcus aureus Smith, aerobic, agar dilution
MIC [1] [µg/mL],"MIC [2, 22] [µg/mL]",MIC [5] [µg/mL],MIC [6] [µg/mL],MIC [7] [µg/mL],MIC [8] [µg/mL],MIC [9] [µg/mL],MIC [10] [µg/mL],MIC [11] [µg/mL],MIC [12] [µg/mL],MIC (Escherichia coli NR 2630) [µg/mL],MIC [13] [µg/mL],MIC [14] [µg/mL],MIC [15] [µg/mL],MIC [16] [µg/mL],MIC [17] [µg/mL],MIC [18] [µg/mL],MIC [19] [µg/mL],MIC [20] [µg/mL],MIC [21] [µg/mL],Compound,other results
0.78,3.13,3.13,3.13,25,12.5,0.78,0.2,0.78,0.78,0.2,3.13,12.5,6.25,0.39,6.25,50,0.78,1.56,0.78,CC1Oc2c(N3CCN(C)CC3)c(F)cc3c(=O)c(C(=O)O)cn(c23)N1C (stereo not shown) [Example 26],"MIC [3, 23]: 1.56 µg/mL; MIC [4, 24]: 3.13 µg/mL"
0.05,0.39,0.39,0.39,12.5,3.13,0.05,0.025,0.05,0.05,0.025,0.2,3.13,0.39,0.025,0.2,1.56,0.025,0.2,0.025,CNC1CCN(c2c(F)cc3c(=O)c(C(=O)O)cn4c3c2OCN4C)C1 (stereo not shown) [Example 31],"MIC [3, 23]: 0.78 µg/mL; MIC [4, 24]: 0.2 µg/mL"
0.05,0.2,0.39,0.39,6.25,1.56,0.1,0.025,0.1,0.1,0.025,0.39,1.56,1.56,0.025,0.39,3.13,0.1,0.39,0.025,CCNC1CCN(c2c(F)cc3c(=O)c(C(=O)O)cn4c3c2OCN4C)C1 (stereo not shown) [Example 32],"MIC [3, 23]: 0.39 µg/mL; MIC [4, 24]: 0.1 µg/mL"
≤ 0.0008,0.0016,0.025,≤ 0.0008,3.13,12.5,0.78,0.1,0.2,0.1,≤ 0.0008,3.13,1.56,6.25,≤ 0.0008,6.25,25,0.013,0.78,0.2,"COC1CCN(c2c(F)cc3c(=O)c(C(=O)O)cn4c3c2OCN4C)C1 (stereo not shown) [Example 37, 9-fluoro-10-(3-methoxy-1-pyrrolidinyl)-3-methyl-7-oxo-2,3-dihydro-7H-pyrido[3,2,1-ij]-1,3,4-benzoxadiazine-6-carboxylic acid]","MIC [3, 23]: ≤ 0.0008 µg/mL; MIC [4, 24]: ≤ 0.0008 µg/mL"
≤ 0.0008,0.39,0.39,0.39,12.5,6.25,6.25,3.13,6.25,6.25,0.39,25,6.25,25,3.13,25,50,6.25,12.5,6.25,"COC1CCN(c2c(F)cc3c(=O)c(C(=O)O)cn4c3c2OCN4C)CC1 [Example 38, 9-fluoro-10-(4-methoxy-1-piperidyl)-3-methyl-7-oxo-2,3-dihydro-7H-pyrido[3,2,1-ij]-1,3,4-benzoxadiazine-6-carboxylic acid]","MIC [3, 23]: 0.2 µg/mL; MIC [4, 24]: 0.1 µg/mL"
0.05,0.39,0.39,0.39,6.25,1.56,0.05,0.025,0.05,0.05,0.025,0.39,0.39,0.39,0.025,0.39,3.13,0.1,0.1,0.025,CCN1CCN(c2c(F)cc3c(=O)c(C(=O)O)cn4c3c2OCN4C)CC1 [Example 42],"MIC [3, 23]: 0.39 µg/mL; MIC [4, 24]: 0.39 µg/mL"
0.05,0.78,0.78,0.39,12.5,1.56,0.2,0.1,0.2,0.2,0.05,0.39,0.39,1.56,0.1,0.78,6.25,0.2,0.39,0.2,CN1COc2c(N3CCN(CCF)CC3)c(F)cc3c(=O)c(C(=O)O)cn1c23 [Example 44],"MIC [3, 23]: 0.39 µg/mL; MIC [4, 24]: 0.39 µg/mL"
0.39,1.56,3.13,3.13,50,12.5,0.1,0.05,0.2,0.2,0.1,0.39,12.5,0.78,0.1,0.78,6.25,0.05,0.78,0.1,CN1COc2c(N3CCN(CC(=O)O)CC3)c(F)cc3c(=O)c(C(=O)O)cn1c23 [Example 45],"MIC [3, 23]: 3.13 µg/mL; MIC [4, 24]: 0.78 µg/mL"

Compound,MIC [1] [µg/mL],"MIC [2, 22] [µg/mL]",MIC [5] [µg/mL],MIC [6] [µg/mL],MIC [7] [µg/mL],MIC [8] [µg/mL],MIC [9] [µg/mL],MIC [10] [µg/mL],MIC [11] [µg/mL],MIC [12] [µg/mL],MIC (Escherichia coli NR 2630) [µg/mL],MIC [13] [µg/mL],MIC [14] [µg/mL],MIC [15] [µg/mL],MIC [16] [µg/mL],MIC [17] [µg/mL],MIC [18] [µg/mL],MIC [19] [µg/mL],MIC [20] [µg/mL],MIC [21] [µg/mL],other results
"CCN(C)CC1CCN(c2c(F)cc3c(=O)c(C(=O)O)cn4c3c2OCN4C)C1 (stereo not shown) [Example 48, 10-[3-[(ethylmethylamino)methyl]-1-pyrrolidinyl]-9-fluoro-3-methyl-7-oxo-2,3-dihydro-7H-pyrido-[3,2,1-ij]-1,3,4-benzoxadiazine-6-carboxylic acid]",0.05,–,0.39,0.78,6.25,3.13,0.39,0.39,0.39,0.39,0.1,1.56,6.25,3.13,0.39,3.13,50,1.56,1.56,0.39,"MIC ([2]; Staphylococcus aureus): 0.39 µg/mL; MIC ([3]; Staphylococcus aureus, NR2855, read-out: minimum inhibitory concentration (MIC)): 0.39 µg/mL; MIC [4, 24]: 0.2 µg/mL"
"CC(=O)CCN1CCN(c2c(F)cc3c(=O)c(C(=O)O)cn4c3c2OCN4C)CC1 [Example 51, 9-fluoro-3-methyl-7-oxo-10-[4-(3-oxo-n-butyl)-1-piperazinyl]-2,3-dihydro-7H-pyrido[3,2,1-ij]-1,3,4-benzoxadiazine-6-carboxylic acid]",0.1,0.2,0.78,0.78,12.5,3.13,0.025,0.025,0.05,0.1,0.025,0.2,1.56,0.2,0.025,0.1,1.56,0.05,0.1,0.025,"MIC [3, 23]: 1.56 µg/mL; MIC ([4]; Staphylococcus aureus): 0.39 µg/mL"
